This note sets out measurements from patent publication US20160214941A1, “Compounds for lnhibition of Unregulated Cell Growth” (GODAVARI BIOREFINERIES LIMITED, priority 2013, published 2016).

What all share (type): cell-based
One assay relates to Colo320. The assay is described as follows: In vitro colorimetric cell death assay (MTT assay). As to conditions: Colo320 (colon cancer), 48 hours. The procedure: (§1) MTT assay was carried for assessing cell viability where the cells were grown in two-dimensional surface. The procedure for the assay is as follows. Cancer cells were plated in 96 well plates as per predetermined plating efficiency. The plates were incubated for 24 hours in a 5% CO2 atmosphere at 37° C., a range of concentrations of the compound of the present invention was added to the wells, the plates were incubated further for 48 hours in a 5% CO2 atmosphere, the plates were centrifuged twice at 3000 rpm for 3 minutes, the supernatant fluid was discarded, 100 uL of 0.5 mg/mL MIT solution was added and the plates were incubated for 4 hours in a 5% CO2 atmosphere at 37° C. The plates were then centrifuged twice at 3000 rpm for 3 minutes, supernatant was aspirated very carefully, 200 uL DMSO was added to each well to solubilize MTT crystals and mixed well by shaking the plates, the plates were incubated for 10 minutes in a 5% CO2 atmosphere at 37° C., the plates were placed on the shaker of an ELISA plate reader and the absorbance at 570 nm was measured, then the percentage of viable cells remaining was calculated by first subtracting the background absorbance then comparing to the absorbance of a non-drug-treated cell sample, and the results were plotted on a graph to determine the IC50 for the compound as known in the art. The reference drug used was Cisplatin.

The test system of assay [1] is T47D. The assay can be described thus: In vitro colorimetric cell death assay (MTT assay). The conditions noted are these: T47D (breast cancer), 48 hours. The procedure:
as §1
(Tetrazolium assays rely on reduction of a dye to a coloured formazan, in cell work by metabolically active cells.)

Another assay concerns Hep3B. The assay is described as follows: In vitro colorimetric cell death assay (MTT assay). As to conditions: Hep3B (hepatic cancer), 48 hours. The method, then: as §1
In a further assay the test system is Colo205. The assay is described as follows: In vitro colorimetric cell death assay (MTT assay). The conditions noted are these: Colo205 (colon cancer), 48 hours. The method, then: as §1
For assay [2], the system named is SiHa. The assay is described as follows: In vitro colorimetric cell death assay (MTT assay). As to conditions: SiHa (cervical cancer), 48 hours. The procedure: as §1
Assay [3] relates to LnCaP. The assay can be described thus: In vitro colorimetric cell death assay (MTT assay). As to conditions: LnCaP (prostate cancer), 48 hours. The procedure: as §1
For assay [4], the system named is HCT-15. The assay is described as follows: In vitro colorimetric cell death assay (MTT assay). As to conditions: HCT-15 (colon cancer), 48 hours. The method, then: as §1
For the next assay, the system named is NCIH23. The assay is described as follows: In vitro colorimetric cell death assay (MTT assay). As to conditions: NCIH23 (lung cancer), 48 hours. The procedure:
as §1

For assay [5], the system named is L929. The assay is described as follows: In vitro colorimetric cell death assay (MTT assay). The conditions noted are these: L929 (fibroblast), 48 hours. The method, then:
as §1

The next assay concerns MDA MB 231 cell line. The assay can be described thus: In vitro 3D sphere forming stem cell assay. The method, then: In Vitro 3D Sphere Forming Stem Cell Assay Compounds of Formula III & IV were evaluated in an in vitro 3D sphere forming stem cell assay as described by Rajasekhar, V K, Analytical Methods for Cancer Stem Cells. Methods in Molecular Biology, 2007, Volume 407, 83-95.
An exemplary procedure for the in vitro 3D sphere forming stem cell assay is described as follows. Breast Cancer Cells were grown in two dimensions on a plastic substrate, harvested in suspension in serum-free media, then the cells in the sample were trypsinized and a single cell suspension was formed by passing through a cell strainer. The cells were diluted according to the predetermined plating efficiency for the cell line being studied by suspending the cells in stem cell culture medium. 100 uL of this suspension was added into each well of a 96 well suspension plate, and the plate was incubated at 37° C. in 5% CO2 atmosphere for 24 hours, then 2 uL of appropriate concentrations of the drugs was added into each respective well along with 100 uL of stem cell culture medium, and the plates incubated at 37° C. under 5% CO2 atmosphere for 72 hours. 2.5 uL of the appropriate drug concentration (Formula III and Formula IV) of was then added to each respective well along with 50 uL of stem cell culture medium, then the plates incubated at 37° C. under 5% CO2 atmosphere for 72 hours. 3 uL of the appropriate drug concentration was added to each respective well along with 50 uL of stem cell culture medium, then incubated at 37° C. under 5% CO2 atmosphere for 72 hours, the spheres formed were observed under a microscope then counted and scored by size.
The number in each box is the total number of spheres formed in the presence of either cisplatin, compound of Formula III or compound of Formula IV at each drug concentration. GC refers to a growth control performed in the absence of drug or solvent (DMSO). GCD refers to a growth control performed in the absence of drug, but in the presence of DMSO.

In assay [6] the test system is T47D. The assay can be described thus: In vitro soft agar colony forming growth assay. As to conditions: one week. The method, then: (§2) Compounds of Formula IV were evaluated in an in vitro soft agar colony forming growth inhibition assay as described by Lieber, M M, and Kovach, J S. Soft agar colony formation assay for chemotherapeutic sensitivity of human solid tumors. Mayo Clin Proc 1982; 57: 527-528 and Tanigawa, N, Kern, D H, Kikasa, Y, and Morton, D L. Rapid assay for evaluating the chemosensitivity of human tumors in soft agar culture. Cancer Res 1982; 42: 2159-2164.
(§3) An exemplary procedure for the in vitro soft agar colony forming growth inhibition assay is as follows.

A further assay concerns PC3. The assay is described as follows: In vitro soft agar colony forming growth assay. The conditions noted are these: PC3, one week. The procedure:
as §2, §3

Assay [7] concerns SiHa. The assay can be described thus: In vitro soft agar colony forming growth assay. As to conditions: one week. The method, then: as §2, §3
Assay [8] deals with LnCaP. The assay can be described thus: In vitro soft agar colony forming growth assay. As to conditions: one week. The method, then: as §2, §3
Assay [9] concerns HCT-15. The assay is described as follows: In vitro soft agar colony forming growth assay. The conditions noted are these: HCT-15, one week. The procedure: as §2, §3
For assay [10], the system named is L929. The assay is described as follows: In vitro soft agar colony forming growth assay. As to conditions: L929, one week. The method, then:
as §2, §3

The test system of a further assay is DU145. The assay is described as follows: In vitro soft agar colony forming growth assay. As to conditions: DU145, one week. The procedure: as §2, §3
In assay [11] the test system is PC3 (Prostrate Cancer) cells. The assay can be described thus: CD44 and CD24 expression on PC3 cells by Flow Cytometry. The conditions noted are these: 48 hours. The method, then:
A study was conducted to determine the effect of compound of Formula IV and Cisplatin on CD44 and CD24 expression on PC3 (Prostrate Cancer) cells by Flow Cytometry. PC3 cells (0.35×106) were cultured in R.P.M.I (Roswell Park Memorial Institute Medium)-1640 cell culture medium with 10% F.B.S (Fetal Bovine Serum) on 60 mm TC (Tissue Culture) plates. Cells were exposed to IC10 drug concentration of Cisplatin & IC10 drug concentration of compound of Formula IV in duplicates. Similarly other sets were exposed to IC25 drug concentration of Cisplatin & compound of Formula IV in duplicates. IC10 and IC25 drug concentrations were calculated as per MTT results. All the sets were incubated at 37° C., 5% CO2 for 48 hours. After 48 hours, cells were observed under the microscope. Cells were trypsinised, washed with D.P.B.S. (Dulbecco's Phosphate Buffered Saline) and 50 μL of cells were taken for each set and 5 μL of each of CD24 and CD44 antibodies were added. CD24-FITC (Fluorescein isothiocyanate) labeled & CD44-PE (Phycoerythrin) labeled was used for the study. The sets were incubated for 45 minutes at 4° C. in dark for proper binding of antibodies. After incubation the cells were washed with 200 μL of D.P.B.S., supernatant was discarded and the cells were finally suspended in 300 μL of FACS buffer (4% F.B.S in D.P.B.S.). […]

Structures are written as SMILES. pIC50: −log10 of the molar value.

Usually pIC50 stands for the IC50 on a negative log10 scale, so that one unit is a factor of ten. Turning to `N.N.[Cl][Pt][Cl]` [Cisplatin], the pIC50 in the assay on Colo320 was 4.42; in the assay on T47D [1] it was 4.02; with Hep3B, 4.43; in the assay with Colo205, 4.35; in the assay on SiHa [2], 4.36; in the assay with LnCaP [3] it was 4.42. Besides, the pIC50 in the assay on HCT-15 [4] is 4.31; with NCIH23, 4.34; with L929 [5], 4.42; in the assay with T47D [6], 4.40; in the assay with PC3, 4.28; in the assay with SiHa [7], 4.71. The pIC50 is 4.50 in the assay on LnCaP [8], 4.40 in the assay on HCT-15 [9], 5.03 in the assay on L929 [10] and 4.48 in the assay on DU145. Further, the “# of 3D Spheres Formed (±SD)” value in the assay with MDA MB 231 cell line (MDAMB 231, 1.1 uM) is recorded as 35(±4); in the assay with MDA MB 231 cell line (MDAMB 231, 11 uM) it was 24(±2); in the assay with MDA MB 231 cell line (MDAMB 231, 110 uM), 16(±2). In addition, the “effect on cell / CD44 population” value in [11] (IC10 drug concentration) is given as “most of the cells remain unaffected”. Also, the “effect on CD44 cell population” value in assay [11] (IC25 drug concentration) is recorded as “good number of CD44 cell population surviving”.

For `COc1ccc(/C=C/C(=O)c2cccc(Nc3c4ccc(Cl)cc4nc4ccc(OC)cc34)c2)cc1` [Formula III, 1-(3-(6-chloro-2-methoxyacridin-9-ylamino)phenyl)-3-(4-methoxyphenyl)prop-2-en-1-one], the “sphere reduction as compared to standard drug Cisplatin” value in the assay on MDA MB 231 cell line (MDA MB 231) is “Significant sphere reduction”. For the same compound, the “# of 3D Spheres Formed (±SD)” value with MDA MB 231 cell line (MDAMB 231, 1.1 uM) is 15(±2); with MDA MB 231 cell line (MDAMB 231, 11 uM) it was 0(±0); in the assay with MDA MB 231 cell line (MDAMB 231, 110 uM), 0(±0).
